Assay results from patent US20210284622A1, “BIOACTIVE POLYMERS WITH ANTI=FOULING PROPERTIES FOR MEDICAL AND DENTAL USES” (OREGON HEALTH & SCIENCE UNIVERSITY, priority 2020, published 2021).

Legend:
Type in all cases: cell-based
S. mutans [1] = assay: Minimum inhibitory concentration (MIC) against S. mutans, serial dilution, TH medium plus sucrose, 96 h; conditions: Streptococcus mutans, S. mutans in TH medium plus sucrose, 37° C. aerobically
Method: Methods: G43, and its non-binding counterpart, G43TEG (N-(2-carbamoyl-4-(2-(2-(2-(2-hydroxyethoxy)ethoxy)ethoxy)ethoxy)phenyl)-5-nitrobenzo[b]thiophene-2-carboxamide), were synthesized and minimum inhibitory concentration (MIC) against S. mutans was established. The compounds were serially diluted in DMSO to 400, 200, 100, 50, 25 and 12.5 then added to S. mutans grown in TH medium plus sucrose. Cultures were incubated for 96 h at 37° C. aerobically. Supernatants with planktonic cells and biofilms were assayed separately for metabolic activity using S. mutans carrying a renilla luciferase reporter. G43 or G43TEG were added at 4 wt % into 50:50 BisGMA/TEGDMA and 70 wt % filler. 0.2 wt % BAPO, 0.05 wt % BHT were used as the photoinitiator and inhibitor, respectively. Polymerization kinetics were assessed for 5 min by near-IR in discs (4 mm by 10 mm diameter), cured with a LED light source (700 mW/cm2, 30 s). Discs were then immersed in deionized H2O for 7 days, with extracted monomers collected every 24 h. Results were analyzed with one-way ANOVA/Tukey's test (α=0.05). […] Polymerizations of dental resins were relatively unaffected by 4% G43 or G43TEG (FIG. 1).

S. mutans [2] = assay: Biofilm bacterial viability by metabolic activity, renilla luciferase reporter S. mutans; conditions: at MIC, FIG. 1
Excerpt: FIG. 2 represents S. mutans bacterial viability as measured using a metabolic activity via arenilla-reporter S. mutans(Merritt2016).
Methods: G43, and its non-binding counterpart, G43TEG (N-(2-carbamoyl-4-(2-(2-(2-(2-hydroxyethoxy)ethoxy)ethoxy)ethoxy)phenyl)-5-nitrobenzo[b]thiophene-2-carboxamide), were synthesized and minimum inhibitory concentration (MIC) against S. mutans was established. The compounds were serially diluted in DMSO to 400, 200, 100, 50, 25 and 12.5 then added to S. mutans grown in TH medium plus sucrose. Cultures were incubated for 96 h at 37° C. aerobically. Supernatants with planktonic cells and biofilms were assayed separately for metabolic activity using S. mutans carrying a renilla luciferase reporter. […] Polymerization kinetics were assessed for 5 min by near-IR in discs (4 mm by 10 mm diameter), cured with a LED light source (700 mW/cm2, 30 s). […] Results were analyzed with one-way ANOVA/Tukey's test (α=0.05). […]
Eight G43 derivatives (G43, G43TEG, G43-TEG-MMA, G43-A2-OMe, G43-A-NH2, G43B-Furan, G43-B1-OMe, G43-C3-OMe, and G16) were synthesized de novo screened against S. mutans for biofilm inhibition. […] Biofilms were stained with crystal violet (CV), washed 3× with DI H2O, and then the CV was volumetrically extracted to colorimetrically determine the quantity of biofilm. […] Results were analyzed with one-way ANOVA/Tukey's test (α=0.05).

S. mutans [3] = assay: Biofilm quantification by crystal violet (CV) stain, Abs at 562 nm; conditions: 50 μM, FIGS. 3 & 4
Method: FIG. 3 Represents quantification of biofilms grown under different inoculants (50 μM) using crystal violet (CV) stain: (top) Biofilm morphology as visualized after CV stain, (chart) Colorimetrically quantified CV (Absat562 nm) to quantity the biofilm.
FIG. 4 represents quantification of biofilms grown under different inoculants (50 μM) using crystalviolet (CV) stain: (top) Biofilm morphology as visualized after CVstain, (chart) Colorimetrically quantified CV (Absat562 nm) to quantity the biofilm.
[…] G43 derivatives (G43, G43TEG, G43-TEG-MMA, G43-A2-OMe, G43-A-NH2, G43B-Furan, G43-B1-OMe, G43-C3-OMe, and G16) were synthesized de novo screened against S. mutans for biofilm inhibition. The compounds were dissolved in DMSO and serially diluted in H2O at 50 μM, then added to S. mutans cultures (TH medium with sucrose) & incubated for 96 h at 37° C. aerobically. Biofilms were assayed for bacterial viability (metabolic activity via a renilla-reporter S. mutans—Merritt2016). Biofilms were stained with crystal violet (CV), washed 3× with DI H2O, and then the CV was volumetrically extracted to colorimetrically determine the quantity of biofilm. Next, biofilms were washed 3× with DI H2O, then sterilized with EtOH, azeotropically dried. […] Results were analyzed with one-way ANOVA/Tukey's test (α=0.05).

GtfC mutants = assay: Crystal violet biofilm quantification in four strains of S. mutans (Gtf mutants); conditions: FIG. 5
Method: FIG. 5 represents quantification of biofilms grown using four strains of S. mutans and colorimetrically quantified CV (Absat562 nm) to quantity the biofilm. Note that AGTF denotes which Gtf enzyme(s) are not expressed by the strain.
Eight G43 derivatives (G43, G43TEG, G43-TEG-MMA, G43-A2-OMe, G43-A-NH2, G43B-Furan, G43-B1-OMe, G43-C3-OMe, and G16) were synthesized de novo screened against S. mutans for biofilm inhibition. The compounds were dissolved in DMSO and serially diluted in H2O at 50 μM, then added to S. mutans cultures (TH medium with sucrose) & incubated for 96 h at 37° C. aerobically. Biofilms were assayed for bacterial viability (metabolic activity via a renilla-reporter S. mutans—Merritt2016). Biofilms were stained with crystal violet (CV), washed 3× with DI H2O, and then the CV was volumetrically extracted to colorimetrically determine the quantity of biofilm. Next, biofilms were washed 3× with DI H2O, then sterilized with EtOH, azeotropically dried. Insoluble biofilm was chemically digested by 1) methylation, 2) acid depolymerization, 3) reduction, and 4) acylation, resulting in methylated alditol acetates for polysaccharide connectivity determination by GC/MS. Results were analyzed with one-way ANOVA/Tukey's test (α=0.05).

Row | Compound | MIC (S. mutans [1]) [µM] | reduction of viable biofilm cells (S. mutans [2]) | biofilm production (S. mutans [3]) | biofilm reduction in GtfC mutants (GtfC mutants)
1 | NC(=O)c1ccccc1NC(=O)c1cc2cc([N+](=O)[O-])ccc2s1 [G43, N-(2-carbamoylphenyl)-5-nitrobenzo[b]thiophene-2-carboxamide] | 25 to 50 | significant reduction | significantly reduced | biofilm reduction efficacy
2 | NC(=O)c1cc(OCCOCCOCCOCCO)ccc1NC(=O)c1cc2cc([N+](=O)[O-])ccc2s1 [G43TEG, N-(2-carbamoyl-4-(2-(2-(2-(2-hydroxyethoxy)ethoxy)ethoxy)ethoxy)phenyl)-5-nitrobenzo[b]thiophene-2-carboxamide] | 25 to 50 | significant reduction | significantly reduced | biofilm reduction efficacy
